Measured values taken from publication PMC10788528 (The Journal of Biological Chemistry, 2023).
“And” between values parts separate entries of the source, which are not always exact repeats. Equal values may be shown once. Read-outs that look alike come from different tables or passages of the source.

Legend:
Sm.TRPMMCLZ [1] = biological target: T1, Sm.TRPMMCLZ (Schistosoma mansoni, UniProt A0A5K4FCC0); experiment: Ca2+ reporter assay; type: cell-based; conditions: for Activator screen at Sm.TRPMMCLZ: 10 μM
T1 sequence (A0A5K4FCC0 1-1380): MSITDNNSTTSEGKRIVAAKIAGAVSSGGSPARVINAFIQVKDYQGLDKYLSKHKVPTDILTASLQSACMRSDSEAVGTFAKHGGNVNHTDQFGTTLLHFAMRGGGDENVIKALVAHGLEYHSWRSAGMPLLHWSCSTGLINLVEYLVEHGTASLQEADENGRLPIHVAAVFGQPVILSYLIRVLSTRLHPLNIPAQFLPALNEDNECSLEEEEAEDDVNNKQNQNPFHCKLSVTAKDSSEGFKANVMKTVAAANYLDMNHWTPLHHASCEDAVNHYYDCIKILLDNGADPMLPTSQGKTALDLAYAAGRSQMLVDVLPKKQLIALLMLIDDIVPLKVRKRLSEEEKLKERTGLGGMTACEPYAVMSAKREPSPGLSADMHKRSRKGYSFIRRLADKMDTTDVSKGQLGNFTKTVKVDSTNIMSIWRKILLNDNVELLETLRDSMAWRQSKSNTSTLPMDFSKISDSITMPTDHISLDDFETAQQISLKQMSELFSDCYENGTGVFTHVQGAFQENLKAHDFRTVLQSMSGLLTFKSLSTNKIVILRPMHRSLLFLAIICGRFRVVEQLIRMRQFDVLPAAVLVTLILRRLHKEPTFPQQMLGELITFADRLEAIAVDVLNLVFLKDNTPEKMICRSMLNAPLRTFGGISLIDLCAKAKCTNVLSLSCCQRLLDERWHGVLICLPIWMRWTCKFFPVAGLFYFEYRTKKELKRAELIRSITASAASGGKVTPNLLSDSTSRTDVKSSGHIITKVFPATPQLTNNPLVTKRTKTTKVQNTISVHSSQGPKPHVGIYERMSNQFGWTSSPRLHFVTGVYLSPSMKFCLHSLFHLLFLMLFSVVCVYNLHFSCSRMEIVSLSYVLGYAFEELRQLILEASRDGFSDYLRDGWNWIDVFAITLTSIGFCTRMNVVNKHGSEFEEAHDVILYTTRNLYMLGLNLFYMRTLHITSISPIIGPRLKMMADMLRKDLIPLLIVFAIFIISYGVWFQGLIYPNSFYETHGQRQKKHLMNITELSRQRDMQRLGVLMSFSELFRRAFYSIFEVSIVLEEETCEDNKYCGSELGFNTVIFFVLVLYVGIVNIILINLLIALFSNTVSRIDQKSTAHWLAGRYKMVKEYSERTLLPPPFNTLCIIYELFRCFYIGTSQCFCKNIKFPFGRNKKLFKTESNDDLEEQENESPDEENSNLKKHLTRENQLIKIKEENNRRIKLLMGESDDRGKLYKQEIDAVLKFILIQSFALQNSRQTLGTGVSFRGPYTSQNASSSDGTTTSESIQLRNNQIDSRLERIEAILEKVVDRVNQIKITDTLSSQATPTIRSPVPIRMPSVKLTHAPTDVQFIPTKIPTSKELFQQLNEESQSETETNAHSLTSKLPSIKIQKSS

S. mansoni male worms = experiment: Acute contraction of S. mansoni male worms by benzodiazepines; type: cell-based, Schistosoma mansoni; conditions: 3 μM, 20 min
Sm.TRPMPZQ = Sm.TRPMPZQ (Schistosoma mansoni, UniProt A0A5K4F0X5); experiment: Ca2+ reporter assay; type: cell-based; conditions: for Activation of Sm.TRPMPZQ by Cav channel ligands: Fig. S2 concentration-response
Sm.TRPM[Y1117A]MCLZ = experiment: Ca2+ reporter assay, Sm.TRPM[Y1117A]MCLZ mutant; type: cell-based, Schistosoma mansoni; conditions: binding pocket mutant
Sm.TRPM[R943A]MCLZ = experiment: Ca2+ reporter assay, Sm.TRPM[R943A]MCLZ mutant; type: cell-based, Schistosoma mansoni; conditions: binding pocket mutant
Sh.TRPM[H946Y] = experiment: Ca2+ reporter assay, Sh.TRPM[H946Y] mutant; type: cell-based, Schistosoma haematobium; conditions: S4 point mutant
Sh.TRPMMCLZ = Sh.TRPMMCLZ (Schistosoma haematobium, UniProt A0A922LUV1); experiment: Ca2+ reporter assay, Sh.TRPMMCLZ; type: cell-based
Sequence of Sh.TRPMMCLZ (A0A922LUV1 1-1380): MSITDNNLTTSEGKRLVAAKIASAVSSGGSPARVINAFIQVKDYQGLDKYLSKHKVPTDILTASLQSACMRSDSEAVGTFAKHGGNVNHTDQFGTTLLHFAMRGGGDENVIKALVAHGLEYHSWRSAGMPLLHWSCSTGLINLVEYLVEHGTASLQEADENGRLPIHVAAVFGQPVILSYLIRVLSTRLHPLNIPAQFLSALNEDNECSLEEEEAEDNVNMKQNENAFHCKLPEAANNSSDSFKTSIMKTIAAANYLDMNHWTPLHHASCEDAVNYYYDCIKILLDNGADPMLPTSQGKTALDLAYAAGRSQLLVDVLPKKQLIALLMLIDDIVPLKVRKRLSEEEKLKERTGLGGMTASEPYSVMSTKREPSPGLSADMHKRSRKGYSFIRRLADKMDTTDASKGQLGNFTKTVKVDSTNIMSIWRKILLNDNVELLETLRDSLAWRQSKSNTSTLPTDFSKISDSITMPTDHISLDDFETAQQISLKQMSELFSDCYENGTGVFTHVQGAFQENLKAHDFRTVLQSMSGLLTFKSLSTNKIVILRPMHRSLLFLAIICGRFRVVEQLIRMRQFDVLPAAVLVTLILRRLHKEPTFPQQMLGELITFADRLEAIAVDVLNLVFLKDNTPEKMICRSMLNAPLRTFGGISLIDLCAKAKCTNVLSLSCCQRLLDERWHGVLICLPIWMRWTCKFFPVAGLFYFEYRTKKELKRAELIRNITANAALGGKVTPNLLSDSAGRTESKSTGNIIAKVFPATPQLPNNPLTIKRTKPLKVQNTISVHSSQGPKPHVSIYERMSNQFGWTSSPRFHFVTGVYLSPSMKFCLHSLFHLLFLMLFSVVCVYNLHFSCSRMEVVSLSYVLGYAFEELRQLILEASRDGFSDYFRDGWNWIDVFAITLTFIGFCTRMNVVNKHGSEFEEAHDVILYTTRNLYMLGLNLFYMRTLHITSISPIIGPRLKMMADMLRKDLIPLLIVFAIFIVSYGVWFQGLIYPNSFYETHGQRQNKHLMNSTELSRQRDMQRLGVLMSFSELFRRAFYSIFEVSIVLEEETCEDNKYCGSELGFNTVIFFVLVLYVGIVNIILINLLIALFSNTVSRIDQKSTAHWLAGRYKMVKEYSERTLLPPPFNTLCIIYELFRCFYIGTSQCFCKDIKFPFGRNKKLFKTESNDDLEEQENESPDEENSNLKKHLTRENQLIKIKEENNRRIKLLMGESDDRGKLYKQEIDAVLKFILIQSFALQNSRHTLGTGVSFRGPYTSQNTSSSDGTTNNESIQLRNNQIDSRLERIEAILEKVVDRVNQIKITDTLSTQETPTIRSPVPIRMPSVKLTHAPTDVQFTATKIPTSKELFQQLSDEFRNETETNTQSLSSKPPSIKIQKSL

Sm.TRPMMCLZ [Y1038A] = type: cell-based, Schistosoma mansoni; conditions: 10 μM, cell-attached
juvenile worms = conditions: ref 7 (PZQ); 12 ((S)-MCLZ); cited from earlier work
Sm.TRPMMCLZ [2] = biological target: T1, Sm.TRPMMCLZ; experiment: Cell-attached current recordings, HEK293 cells expressing Sm.TRPMMCLZ and GFP; type: cell-based; conditions: 10 μM
[3] = system: HEK293 cells expressing GFP alone; experiment: Cell-attached current recordings, HEK293 cells expressing GFP alone; type: cell-based; conditions: 10 μM
[4] = system: S. mansoni and S. haematobium infections; conditions: preliminary clinical evaluation; cited from earlier work
adult S. mansoni worms [5] = conditions: cited from earlier work
St.TRPMMCLZ = experiment: Ca2+ reporter assay, St.TRPMMCLZ; type: cell-based, Schistosoma turkestanicum; conditions: read-out: Activation of St.TRPMMCLZ, EC50
adult S. mansoni worms [6] = experiment: Adult schistosome movement; type: cell-based, Schistosoma mansoni; conditions: for Effect on worm movement (paralysis): 1 μM, adult S. mansoni worms, images 1 min after addition; for IC50: Schistosoma mansoni, read-out: Inhibition of motility, IC50
Sb.TRPM[H946Y] = experiment: Ca2+ reporter assay, Sb.TRPM[H946Y] mutant; type: cell-based, Schistosoma bovis; conditions: S4 point mutant
Sm.TRPM[H827A]MCLZ = experiment: Ca2+ reporter assay, Sm.TRPM[H827A]MCLZ mutant; type: cell-based, Schistosoma mansoni; conditions: binding pocket mutant
Sm.TRPM[H831A]MCLZ = experiment: Ca2+ reporter assay, Sm.TRPM[H831A]MCLZ mutant; type: cell-based, Schistosoma mansoni; conditions: binding pocket mutant
S. japonicum worms = conditions: cited from earlier work
Sm.TRPMMCLZ [7] = biological target: T1, Sm.TRPMMCLZ; experiment: Confocal Ca2+ imaging, HEK293 cells expressing Sm.TRPMMCLZ; type: cell-based; conditions: 10 μM
Sm.TRPM[Y864A]MCLZ = experiment: Ca2+ reporter assay, Sm.TRPM[Y864A]MCLZ mutant; type: cell-based, Schistosoma mansoni; conditions: S2 residue mutant
Sm.TRPM[E868A]MCLZ = experiment: Ca2+ reporter assay, Sm.TRPM[E868A]MCLZ mutant; type: cell-based, Schistosoma mansoni; conditions: S2 residue mutant
Sm.TRPM[H946A]MCLZ = experiment: Ca2+ reporter assay, Sm.TRPM[H946A]MCLZ mutant; type: cell-based, Schistosoma mansoni; conditions: alanine mutant
Sj.TRPMMCLZ = Sj.TRPMMCLZ (Schistosoma japonicum, UniProt A0A4Z2D8Z3); experiment: Ca2+ reporter assay, Sj.TRPMMCLZ; type: cell-based
Sequence of Sj.TRPMMCLZ (A0A4Z2D8Z3 1-1377): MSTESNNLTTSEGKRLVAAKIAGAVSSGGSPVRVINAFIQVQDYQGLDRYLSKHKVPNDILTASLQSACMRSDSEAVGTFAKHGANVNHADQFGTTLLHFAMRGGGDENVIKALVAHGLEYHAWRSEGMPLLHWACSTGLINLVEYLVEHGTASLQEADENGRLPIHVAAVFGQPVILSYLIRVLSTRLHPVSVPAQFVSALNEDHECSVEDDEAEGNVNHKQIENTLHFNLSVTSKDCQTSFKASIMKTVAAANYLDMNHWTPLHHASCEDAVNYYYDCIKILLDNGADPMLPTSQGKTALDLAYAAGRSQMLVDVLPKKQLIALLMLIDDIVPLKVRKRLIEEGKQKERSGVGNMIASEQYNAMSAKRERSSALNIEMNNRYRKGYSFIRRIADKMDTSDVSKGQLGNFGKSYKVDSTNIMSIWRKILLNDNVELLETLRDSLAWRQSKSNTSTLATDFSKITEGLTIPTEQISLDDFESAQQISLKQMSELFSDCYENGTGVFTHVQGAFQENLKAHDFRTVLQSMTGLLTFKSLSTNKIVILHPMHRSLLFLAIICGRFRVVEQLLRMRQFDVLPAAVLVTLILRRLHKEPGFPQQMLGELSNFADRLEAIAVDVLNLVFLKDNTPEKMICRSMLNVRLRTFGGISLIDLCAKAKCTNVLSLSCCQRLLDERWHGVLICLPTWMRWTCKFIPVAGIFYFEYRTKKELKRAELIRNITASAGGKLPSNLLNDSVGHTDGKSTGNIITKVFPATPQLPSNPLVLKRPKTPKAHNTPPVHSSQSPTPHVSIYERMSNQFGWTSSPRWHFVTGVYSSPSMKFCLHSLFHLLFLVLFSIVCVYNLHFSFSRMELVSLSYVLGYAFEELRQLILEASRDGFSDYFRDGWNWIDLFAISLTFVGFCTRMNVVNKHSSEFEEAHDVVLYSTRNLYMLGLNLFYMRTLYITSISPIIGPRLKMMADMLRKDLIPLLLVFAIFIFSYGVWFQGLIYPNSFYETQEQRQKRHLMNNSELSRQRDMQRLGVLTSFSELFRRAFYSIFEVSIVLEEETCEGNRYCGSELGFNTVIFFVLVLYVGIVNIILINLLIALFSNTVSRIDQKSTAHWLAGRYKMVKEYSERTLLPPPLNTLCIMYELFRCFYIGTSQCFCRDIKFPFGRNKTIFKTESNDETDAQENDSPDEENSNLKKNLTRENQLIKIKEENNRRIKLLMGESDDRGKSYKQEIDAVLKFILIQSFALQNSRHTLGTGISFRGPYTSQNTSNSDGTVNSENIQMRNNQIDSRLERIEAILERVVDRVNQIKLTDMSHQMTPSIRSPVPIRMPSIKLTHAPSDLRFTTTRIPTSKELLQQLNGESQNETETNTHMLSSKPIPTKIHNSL

Sb.TRPMMCLZ = Sb.TRPMMCLZ (Schistosoma bovis, UniProt A0A430Q971); experiment: Ca2+ reporter assay, Sb.TRPMMCLZ; type: cell-based
Sequence of Sb.TRPMMCLZ (A0A430Q971 1-1241): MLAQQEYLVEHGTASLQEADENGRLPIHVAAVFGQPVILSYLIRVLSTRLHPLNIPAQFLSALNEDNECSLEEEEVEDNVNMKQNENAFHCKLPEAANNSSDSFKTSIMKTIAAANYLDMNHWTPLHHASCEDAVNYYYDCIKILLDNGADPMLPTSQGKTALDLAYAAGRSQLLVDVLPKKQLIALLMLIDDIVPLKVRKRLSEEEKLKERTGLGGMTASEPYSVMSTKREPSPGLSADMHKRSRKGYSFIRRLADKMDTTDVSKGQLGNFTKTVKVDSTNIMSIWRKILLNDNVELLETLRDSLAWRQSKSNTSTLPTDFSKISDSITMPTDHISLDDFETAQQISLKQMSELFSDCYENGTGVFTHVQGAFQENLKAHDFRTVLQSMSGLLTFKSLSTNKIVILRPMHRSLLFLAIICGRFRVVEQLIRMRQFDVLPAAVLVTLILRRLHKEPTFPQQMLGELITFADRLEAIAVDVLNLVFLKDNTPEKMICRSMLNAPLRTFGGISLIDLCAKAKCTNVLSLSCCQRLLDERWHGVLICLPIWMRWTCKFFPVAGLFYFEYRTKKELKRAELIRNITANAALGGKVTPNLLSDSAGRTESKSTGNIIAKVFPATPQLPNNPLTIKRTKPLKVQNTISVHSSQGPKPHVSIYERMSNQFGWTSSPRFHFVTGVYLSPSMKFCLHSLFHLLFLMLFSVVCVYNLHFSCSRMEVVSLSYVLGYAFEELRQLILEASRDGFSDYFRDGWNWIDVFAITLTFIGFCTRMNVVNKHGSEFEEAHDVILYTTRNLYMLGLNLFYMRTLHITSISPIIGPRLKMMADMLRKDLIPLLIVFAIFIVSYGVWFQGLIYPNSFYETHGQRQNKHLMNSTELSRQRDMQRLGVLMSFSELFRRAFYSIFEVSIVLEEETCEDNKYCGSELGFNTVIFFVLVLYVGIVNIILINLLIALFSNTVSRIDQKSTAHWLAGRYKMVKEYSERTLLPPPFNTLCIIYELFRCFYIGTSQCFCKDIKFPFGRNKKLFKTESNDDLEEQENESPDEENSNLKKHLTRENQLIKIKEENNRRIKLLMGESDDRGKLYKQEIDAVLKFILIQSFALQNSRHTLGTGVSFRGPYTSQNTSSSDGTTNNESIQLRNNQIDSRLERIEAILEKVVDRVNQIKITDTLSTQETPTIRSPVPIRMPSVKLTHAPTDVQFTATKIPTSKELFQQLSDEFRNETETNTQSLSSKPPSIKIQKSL

## CCOC(=O)c1ncn2c1CN(C)C(=O)c1cc(F)ccc1-2 [flumazenil]
Sm.TRPMMCLZ [1]; 100 μM, preincubation 5 min
  Antagonism of (S)-MCLZ (1 μM) action at Sm.TRPMMCLZ: weakly antagonized

## CCN(CC)CCN1C(=O)CN=C(c2ccccc2F)c2cc(Cl)ccc21 [flurazepam]
S. mansoni male worms
  Acute contraction / paralysis of S. mansoni male worms: did not evoke worm contraction

## COCCOC(=O)C1=C(C)NC(C)=C(C(=O)OC(C)C)C1c1cccc([N+](=O)[O-])c1 (centres unmarked) [nimodipine]
Sm.TRPMMCLZ [1]
  Activator screen at Sm.TRPMMCLZ: activated
Sm.TRPMPZQ
  Activation of Sm.TRPMPZQ by Cav channel ligands: but not Sm.TRPMPZQ

## CN1C(=O)CN=C(c2ccccc2)c2cc(Cl)ccc21 [diazepam]
S. mansoni male worms
  Acute contraction / paralysis of S. mansoni male worms: did not evoke worm contraction

## C[C@@H]1N=C(c2ccccc2Cl)c2cc([N+](=O)[O-])ccc2NC1=O [(S)-MCLZ, (S)-meclonazepam]
Sm.TRPM[Y1117A]MCLZ
  Activation of Sm.TRPM[Y1117A]MCLZ: little activation
Sm.TRPM[R943A]MCLZ
  Activation of Sm.TRPM[R943A]MCLZ: little activation
Sh.TRPM[H946Y]
  Sensitivity of Sh.TRPM[H946Y] relative to wildtype: lower sensitivity of response
Sh.TRPMMCLZ
  EC50: 1.4 ± 0.4 µM
Sm.TRPMMCLZ [Y1038A]
  Current response in pore mutant Sm.TRPMMCLZ [Y1038A]: strongly attenuated
Juvenile worms
  Efficacy against juvenile / immature worms: displays efficacy against juvenile worms
Sm.TRPMMCLZ [2]; holding potential of 60 mV as printed
  Cells with evoked inward current: 17/21
Sm.TRPMMCLZ [2]; voltage ramp, I-V linear
  Reversal potential of current-voltage relationship: ~0 mV
Sm.TRPMMCLZ [1]; Activation of Sm.TRPMMCLZ, EC50, HEK293 cells, cytoplasmic Ca2+ (Fluo-4)
  EC50: 1.1 µM and ~1 µM
[3]
  Cells with evoked currents: 0/10
[4]
  Clinical outcome of infection: cured S. mansoni and S. haematobium infections
  Side effects in subjects: dose-dependent drowsiness, dizziness, slurred speech, ataxia, reduced mental alertness, muscle weakness, hypotension, and bradycardia
Adult S. mansoni worms [5]
  Damage to the worm tegument: pronounced damage to the worm tegument
  Time to spastic paralysis of adult S. mansoni worms: < 1 min
Adult S. mansoni worms [5]; read-out: Sensitivity of schistosome worms, IC50
  IC50: 2 to 3 µM
St.TRPMMCLZ
  EC50: > 50 µM
Adult S. mansoni worms [6]
  Effect on worm movement (paralysis): rapid, spastic paralysis
  IC50: 1.54 ± 0.09 µM
Sb.TRPM[H946Y]
  Sensitivity of Sb.TRPM[H946Y] relative to wildtype: lower sensitivity of response
Sm.TRPM[H827A]MCLZ
  Activation of Sm.TRPM[H827A]MCLZ: resembled the wildtype channel
Sm.TRPM[H831A]MCLZ
  Activation of Sm.TRPM[H831A]MCLZ: little activation
Sm.TRPMPZQ; HEK293 cells, 1 nM to 100 μM
  Agonist activity at Sm.TRPMPZQ (concentration-response): did not activate
Sm.TRPMPZQ; competition versus (±)-PZQ (0.6 μM), high concentrations (>30 μM)
  Antagonism of PZQ activation of Sm.TRPMPZQ: partially attenuated
S. japonicum worms
  Activity against S. japonicum worms: poorly active
Sm.TRPMMCLZ [7]
  Ca2+ signals by confocal imaging in cells expressing Sm.TRPMMCLZ: sustained Ca^2+ transients
Sm.TRPM[Y864A]MCLZ
  Activation of Sm.TRPM[Y864A]MCLZ (effect of mutation): much less of an effect
Sm.TRPM[E868A]MCLZ
  Activation of Sm.TRPM[E868A]MCLZ (effect of mutation): much less of an effect
St.TRPM[Y940H]MCLZ
  EC50: 0.8 ± 0.2 µM
Sm.TRPM[H946A]MCLZ
  Potency at Sm.TRPM[H946A]MCLZ relative to wildtype: slightly increased potency
Sj.TRPMMCLZ
  EC50: > 50 µM
Sb.TRPMMCLZ
  EC50: 1.3 ± 0.3 µM

## COC(=O)c1c(C)[nH]c(C)c1C(=O)c1ccccc1Cc1ccccc1 [FPL-64176]
Sm.TRPMMCLZ [1]
  Activator screen at Sm.TRPMMCLZ: activated
Sm.TRPMPZQ
  Activation of Sm.TRPMPZQ by Cav channel ligands: but not Sm.TRPMPZQ

## O=C(O)CN(CCOCCOCCN(CC(=O)O)CC(=O)O)CC(=O)O [EGTA]
Sm.TRPMMCLZ [1]; EGTA 1 mM in Ca2+-free HBSS, (S)-MCLZ 100 μM
  Effect of chelation of extracellular Ca2+ on the (S)-MCLZ-evoked Ca2+ signal: abolished

## [Cl-].[Cl-].[Mg+2] [Mg^2+, MgCl2]
Sm.TRPMMCLZ [1]; (S)-MCLZ 1 μM, weakest in rank order La3+ > Ba2+ > Mg2+
  Inhibition of Ca2+ permeability through TRPMMCLZ by metal salt: partial inhibition

## C=CCN=C=S [allyl isothiocyanate]
Sm.TRPMMCLZ [1]
  Activator screen at Sm.TRPMMCLZ: inactive

## C[N+](C)(C)CCOC(N)=O [carbachol]
Sm.TRPMMCLZ [1]
  Activator screen at Sm.TRPMMCLZ: inactive

## O=C(C1CCCCC1)N1CC(=O)N2CCc3ccccc3[C@@H]2C1 [(R)-PZQ, praziquantel]
Adult S. mansoni worms [6]
  Effect on worm movement (paralysis): rapid, spastic paralysis
  IC50: 0.25 ± 0.07 µM
